Experimental data taken from PMC6368365, “Didehydro-Cortistatin A Inhibits HIV-1 by Specifically Binding to the Unstructured Basic Region of Tat” (mBio, 2019).

Biological target: Tat-TAR interaction (Human immunodeficiency virus type 1 group M subtype B, UniProt P69697)
Experiment: ChIP of FLAG-Tat followed by qRT-PCR of TAR in HeLa-CD4-LTR-Luc cells
Format: cell-based, HIV-1
Set-up: expressed in transfected cells; host or cells: HeLa-CD4-LTR-Luc
Details: compounds 25 nM, 48 h
Excerpt: FIG 6 dCA binding to Tat disrupts Tat-TAR interaction. (A) EMSA of full-length Tat with TAR in the presence of dCA. Raltegravir (Ralt.) and deleted bulge TAR (ΔTAR) were used as negative controls. Data are representative of n = 3 independent experiments. (B) EMSA of Tat’s basic domain with TAR in the presence of increasing concentrations of dCA to Tat’s basic peptide. Pep B is a peptide encompassing the basic domain of HIV Tat (^45ISYGRKKRRQRRRAP^59). Pep C (^69LSKQPASQPRGDPTG^83) and unlabeled or cold TAR (TARc) were used as negative controls. Neomycin, which binds to Tat and TAR, was used as a positive control. Ratios of compounds (or TARc) concentrations to peptide are shown. Data are representative of n = 3 independent experiments. […] Shown are ITC results from binding of dCA (left) or Tat peptide (right) to TAR at 25°C. […] For the lower plots, results were converted to molar heats and plotted against the molar ratio of dCA or peptide to RNA. […] Luciferase activity was determined relative to protein concentration (Bradford assay) (Fig. S9A). […] Statistical significance was determined using one-way ANOVA with post hoc Tukey’s test with 3 technical replicates. ns, not significant; ***, P < 0.0001. […]
Chromatin immunoprecipitation assay (CHIP). […] The relative proportions of co-immunoprecipitated DNA were determined on the basis of the threshold cycle for qRT-PCR. […]

Chain of Tat-TAR interaction (P69697 whole entry): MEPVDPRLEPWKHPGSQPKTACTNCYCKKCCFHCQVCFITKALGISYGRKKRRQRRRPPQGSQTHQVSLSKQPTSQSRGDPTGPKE

SMILES	Tat-TAR interaction in cells (ChIP)
CN(C)C1CC23CCC4(O2)C(=CCC2(C)C(c5ccc6ccncc6c5)=CCC24)C=C3C(O)C1O (centres unmarked) [dCA, didehydro-cortistatin A]	reduced this Tat-TAR interaction to similar levels as FLAG-Tat Mut
Cc1nnc(C(=O)NC(C)(C)c2nc(C(=O)NCc3ccc(F)cc3)c(O)c(=O)n2C)o1 [raltegravir, reference compound]	A Tat-TAR interaction was detected
